Test results: patent publication US20150072995A1, “TREATMENT OF MALE SEXUAL DYSFUNCTION” (Ixchelsis Limited, priority 2002, published 2015)
Read-outs that look alike come from different tables or passages of the source.

Experiments:
[1] = molecular target: T1, Human cloned vasopressin V1a receptor in CHO cells (Homo sapiens, UniProt P37288); experiment: Vasopressin V1a receptor binding assay (3H-AVP, filtration); conditions: printed as [6.3 nM OT: 148 nM V1a]; read-out: V1a (vasopressin V1a receptor affinity)
T1 construct: expressed in transfected cells; host or cells: CHO cells (membrane preparation)
T1 sequence (P37288 whole entry): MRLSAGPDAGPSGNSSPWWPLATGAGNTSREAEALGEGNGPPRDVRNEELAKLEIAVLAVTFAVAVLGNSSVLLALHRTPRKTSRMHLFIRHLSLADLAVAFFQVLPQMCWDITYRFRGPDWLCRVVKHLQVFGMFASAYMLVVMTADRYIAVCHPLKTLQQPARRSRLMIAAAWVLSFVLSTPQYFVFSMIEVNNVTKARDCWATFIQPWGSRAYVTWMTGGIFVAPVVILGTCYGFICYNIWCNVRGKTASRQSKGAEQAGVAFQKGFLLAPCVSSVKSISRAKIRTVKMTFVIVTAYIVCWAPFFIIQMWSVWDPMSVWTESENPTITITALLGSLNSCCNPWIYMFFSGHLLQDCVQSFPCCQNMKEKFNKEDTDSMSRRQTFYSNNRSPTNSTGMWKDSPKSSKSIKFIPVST
Method: B. Vasopressin VIA Receptor Binding Assay
iii) Membrane Preparation • Frozen cell pellets are retrieved from the freezer and thawed gently on ice. • 3 ml of membrane prep buffer per ml of original packed cell volume is • added and the suspension homogenised with a polytron for several bursts • of 5 seconds on ice until well dispersed before centrifuging at 1000 rpm for 10 mins • The supernatant is removed and stored on ice. A further 3 ml of membrane prep buffer per ml of original packed cell volume is added to the pellet, homogenised on ice and then centrifuged at 1000 rpm for 10 mins • The supernatant is removed, added to the previously removed volume of supernatant and then centrifuged at 25,000×g and 4° C. for 30 mins • The 25,000×g pellet is re-suspended by homogenisation in 1 ml of freezing buffer per ml of original packed cell volume and the protein concentration determined […]
Specific binding is calculated as follows: […]

anaesthetised rats [2] = experiment: Penile erection and p-chloroamphetamine (PCA)-induced ejaculation test in anaesthetised rats; assay type: in vivo, rat
[3] = Free plasma concentration in rats; assay type: in vivo, rat; conditions: for concentration at 30 minutes: rat, plasma, preliminary pharmacokinetic studies
anaesthetised rats [4] = experiment: Splanchnic nerve-stimulated seminal vesicle pressure in anaesthetised rats; assay type: in vivo, rat
Text: Seminal vesicle contraction is essential for emission and the seminal fluid delivered into the prostatic urethra is thought to trigger ejaculation. Oxytocin has direct contractile effects on mammalian seminal vesicles and may additionally have a neuromodulator role influencing sympathetic innervation during ejaculation. In this study seminal vesicle contraction was reduced by 41% after a 1 mgkg^−1 bolus injection (see FIG. 2 below).

[5] = test system: sexually-experienced rats; experiment: Male sexual behaviour model (copulatory behaviour with receptive female); assay type: in vivo, rat
Method: For all the sexual behaviour tests, the male rats were placed in an observation arena (50-60 cm diameter), starting 5 hours into the dark cycle and observed under red illumination. Three to four minutes after placing the male in the arena, a receptive female (ovariectomised, oestradiol benzoate/progesterone injection 48 hour before behavioural study) was introduced into the arena and the following parameters noted: • i) ejaculatory latency (EJL; time taken from addition of receptive female into the arena to ejaculation); • ii) copulatory efficiency (CE; ejaculatory latency/the number of intromissions to ejaculation, i.e. the number of seconds between intromissions); • iii) intromission frequency (IF; the number of intromissions to ejaculation); • iv) mount frequency (MF; the number of mounts to ejaculation); • v) post ejaculatory interval (PEI; the time taken from ejaculation to the commencement of copulatory behaviour).

CNS penetration = conditions: in vivo
oxytocin receptor = molecular target: T2, oxytocin receptor (Homo sapiens, UniProt P30559); experiment: biochemical
T2 sequence (P30559 1-389): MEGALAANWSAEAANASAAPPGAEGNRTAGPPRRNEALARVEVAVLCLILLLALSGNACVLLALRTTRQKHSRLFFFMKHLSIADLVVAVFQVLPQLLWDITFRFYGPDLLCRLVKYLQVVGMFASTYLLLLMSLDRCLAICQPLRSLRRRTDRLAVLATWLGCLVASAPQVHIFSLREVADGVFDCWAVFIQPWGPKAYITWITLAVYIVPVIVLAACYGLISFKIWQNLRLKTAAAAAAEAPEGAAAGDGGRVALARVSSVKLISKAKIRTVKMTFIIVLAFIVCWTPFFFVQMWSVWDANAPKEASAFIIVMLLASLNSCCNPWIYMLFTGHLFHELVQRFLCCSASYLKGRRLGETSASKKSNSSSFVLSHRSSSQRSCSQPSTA
Method: • a) HTA stock compounds at 4 mM in 100% DMSO • b) Dilute compounds to 200 μM in dH2O. • c) Further dilute compounds to 100 μM in 100 mM Tris-HCl, pH 7.8, 20 mM MgCl2. […]
• Cell pellets are retrieved from the freezer, thawed on ice and resuspended in 3 ml of membrane prep buffer per ml packed cell volume. • The suspension is then homogenised using a mechanical homogeniser for several bursts of 5 secs on ice before centrifuging at 25,000×g for 30 mins. • After resuspending the pellet in 1 ml of freezing buffer per 1 ml of the original packed cell volume the suspension is briefly homogenised to remove small lumps. Protein concentrations are then measured and the membrane suspension is finally frozen in aliquots at a minimum of 5 mg/ml at −80° C.
• Membranes are thawed on ice before diluting to 1 mg/ml in assay buffer. […] Following a 4 hour incubation at room temperature, the plates are counted using the TopCount NXT for 30 s/well.
For the test compounds, the amount of ligand bound to the receptor is expressed as follows: […]

human volunteers = conditions: cited from earlier work
rats = conditions: cited from earlier work
[6] = test system: rats, rabbits and monkeys; conditions: cited from earlier work
male animals = conditions: cited from earlier work
rat [7] = conditions: cited from earlier work
rat [8] = conditions: 100 ng/rat icv; cited from earlier work
experienced male rats = conditions: ICV injection, Argiolas et al 1988; cited from earlier work
[9] = infusion into the 3rd ventricle

Molecule: Cc1ccccc1N1CCN(S(=O)(=O)CC23CCC(C[C@@H]2NC(=O)[C@@H](N)CCS(C)(=O)=O)C3(C)C)CC1 (stereo partly drawn) [L-368,899]
- Ki [1]: 148 nM
- PCA-induced erections resulting in penile cups (anaesthetised rats [2]; 0.1 mg/kg): 98%
- PCA-induced erections resulting in penile flares (anaesthetised rats [2]; 0.1 mg/kg): 88%
- PCA-induced erections resulting in penile cups (anaesthetised rats [2]; 1.0 mg/kg sc): 95%
- PCA-induced erections resulting in penile flares (anaesthetised rats [2]; 1.0 mg/kg sc): 61%
- Ejaculation delayed (near maximal effect) (anaesthetised rats [2]; PCA-induced ejaculation, at free plasma concentrations 5.4±1.5 nM): 140%
- delay of PCA-induced ejaculation (anaesthetised rats [2]; anaesthetised rats, 0.1-10 mgkg^−1 sc): significantly delayed
- free plasma concentration ([3]; after a 1.0 mgkg^−1 iv injection, based on literature PK and protein plasma binding): approximately 60 nM
- free plasma concentration at which ejaculation was delayed 140% ([3]; anaesthetised rats, sc): 5.4 ± 1.5 nM
- concentration at 30 minutes ([3]; 30 minutes after 1 mgkg^−1 sc): 4.5 nM
- concentration at 30 minutes ([3]; 30 minutes after 10 mgkg^−1 sc): 40 nM
- splanchnic nerve-stimulated increases in seminal vesicle pressure (anaesthetised rats [4]; 1-3 mgkg^−1 iv): significantly reduced
- reduction of seminal vesicle contraction (anaesthetised rats [4]; after a 1 mgkg^−1 bolus injection): 41%
- effect on copulatory efficiency ([5]; 50 ng/rat icv): no significant effects
- effect on copulatory efficiency ([5]; any of the doses tested, 0.05-10 mgkg^−1 sc): no effects
- effect on copulatory behaviour ([5]; doses up to 10 mgkg^−1 sc): no effect
- CNS penetration (CNS penetration): very poor
- Ki (oxytocin receptor): 6.3 nM

Molecule: C=CCN1CC[C@]23c4c5ccc(O)c4O[C@H]2C(=O)CC[C@@]3(O)[C@H]1C5 [naloxone]
- effect on ejaculation (human volunteers): no effect
- serum oxytocin pulse typically observed at ejaculation (human volunteers): eliminated

Molecule: CC[C@H](C)[C@@H]1NC(=O)[C@H](Cc2ccc(O)cc2)NC(=O)[C@@H](N)CSSC[C@@H](C(=O)N2CCC[C@H]2C(=O)N[C@@H](CC(C)C)C(=O)NCC(N)=O)NC(=O)[C@H](CC(N)=O)NC(=O)[C@H](CCC(N)=O)NC1=O [oxytocin]
- ejaculatory latency (rats; [9]): no effect
- latencies to the first mount and intromission (rats; [9]): increased
- post ejaculatory refractory periods (rats; [9]): lengthened
- ejaculatory latency (rats; intravenous infusion): no effect
- number of intromissions made before ejaculation (rats; intravenous infusion): dose dependently reduced
- latency to achieve ejaculation ([6]; central administration): reduce
- post-ejaculatory interval ([6]; central administration): shorten
- induction of penile erection ([6]; rats, rabbits and monkeys): one of the most potent agents to induce penile erection
- ejaculation latency and post-ejaculation interval (male animals; injected either centrally or peripherally): shortens
- penile erections (male animals; injected into specific areas of the brain (periventricular nucleus of the hypothalamus)): facilitates

Molecule: d(CH2)5Tyr(Me)-Orn^8-vasotocin
- copulatory behaviour ([5]; 50 ng/rat icv): abolished
- effect on ejaculatory latency ([5]; doses up to 25 ng/rat icv, previous studies): no effect
- number of non-contact erections (rat [7]; 100 ng/rat icv): reduces
- non-contact penile erections (rat [7]; Melis et al 1999, dose not given): significantly reduces
- drug-induced erections (rat [8]): abolished
- ejaculation (experienced male rats): abolishment
- penile erection (experienced male rats): prevent penile erection
- sexual performance (experienced male rats): impair
